Experimental data reported in patent publication US20230087118A1, “IMIDAZO[1,2-a][sequence] DERIVATIVES AND THEIR USE IN THE TREATMENT OF DISEASE” (priority 2019, published 2023).
Counter-ions that a name gives are not always drawn. Like-named read-outs stand apart in the source and are kept apart here.

Target: T1, IRAK4 (Homo sapiens, UniProt Q9NWZ3)
T1 sequence (Q9NWZ3 1-460): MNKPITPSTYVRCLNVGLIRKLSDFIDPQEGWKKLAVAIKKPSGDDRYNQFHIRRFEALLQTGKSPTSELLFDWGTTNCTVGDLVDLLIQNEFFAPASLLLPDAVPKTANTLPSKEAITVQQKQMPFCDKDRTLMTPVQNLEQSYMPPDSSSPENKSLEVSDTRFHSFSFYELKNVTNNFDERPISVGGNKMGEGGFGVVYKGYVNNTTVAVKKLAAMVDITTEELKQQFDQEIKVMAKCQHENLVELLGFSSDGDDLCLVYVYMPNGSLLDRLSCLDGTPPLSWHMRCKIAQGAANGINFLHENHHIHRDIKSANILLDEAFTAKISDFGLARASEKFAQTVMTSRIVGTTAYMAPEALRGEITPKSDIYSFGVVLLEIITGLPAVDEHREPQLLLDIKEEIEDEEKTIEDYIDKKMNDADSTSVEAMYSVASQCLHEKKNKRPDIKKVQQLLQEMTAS
Test: biochemical

[1] = IRAK4 Biochemical Assay (1 mM ATP, 2 h) IC50 (μM), 1 mM ATP, 2 h, 100 pM IRAK4

SMILES | IC50 [µM] | IC50 [1] [µM]
COc1cccc(NC(=O)c2cn3cc(C45CCC(C)(C4)OC5)nc3cc2OC2CCC2)n1 (centres unmarked) [Example 541, 7-Cyclobutoxy-N-(6-methoxypyridin-2-yl)-2-(1-methyl-2-oxabicyclo[2.2.1]heptan-4-yl)imidazo[1,2-a]pyridine-6-carboxamide] | 0.0002 | 
Cn1nc(NC(=O)c2cn3cc(C45CCC(C)(C4)OC5)nc3cc2OC2CCC2)cc1F (centres unmarked) [Example 419, 7-Cyclobutoxy-N-(5-fluoro-1-methyl-1H-pyrazol-3-yl)-2-(1-methyl-2-oxabicyclo[2.2.1]heptan-4-yl)imidazo[1,2-a]pyridine-6-carboxamide] | 0.0033 | 
CC(C)Oc1cc2nc(C34CCC(C)(C3)OC4)cn2cc1C(=O)Nc1cccc(C(F)F)n1 (centres unmarked) [Example 243] | 0.0002 | 
CC(C)COc1cc2nc(C34COC(C)(C3)C4)cn2cc1C(=O)Nc1cccn(C(F)F)c1=O [Example 453, N-(1-(difluoromethyl)-2-oxo-1,2-dihydropyridin-3-yl)-7-isobutoxy-2-(1-methyl-2-oxabicyclo[2.1.1]hexan-4-yl)imidazo[1,2-a]pyridine-6-carboxamide] | 0.0007 | 
O=C(Nc1cccc(C(F)F)n1)c1cc(Cl)c2nc(C3CCOCC3)cn2c1 [Example 214] | 0.0715 | 
CC(C)Oc1nc2nc(C34CCOC(C)(C3)C4)cn2cc1C(=O)Nc1cccc(C(F)F)n1 [Example 236] | 0.0002 | 
CC12CC(c3cn4cc(C(=O)Nc5cccn(C(F)F)c5=O)c(OC5CCC5(C)C)cc4n3)(CO1)C2 (centres unmarked) [Example 439, N-(1-(difluoromethyl)-2-oxo-1,2-dihydropyridin-3-yl)-7-(2,2-dimethylcyclobutoxy)-2-(1-methyl-2-oxabicyclo[2.1.1]hexan-4-yl)imidazo[1,2-a]pyridine-6-carboxamide] | 0.0028 | 
COc1cccn2ncc(NC(=O)c3cn4cc(C56COC(C)(C5)C6)nc4c(OC(C)C)n3)c12 [Example 401, 8-Isopropoxy-N-(4-methoxypyrazolo[1,5-a]pyridin-3-yl)-2-(1-methyl-2-oxabicyclo[2.1.1]hexan-4-yl)imidazo[1,2-a]pyrazine-6-carboxamide] | 0.0002 | 
CC12CCC(c3cn4cc(C(=O)Nc5ccn(CC#N)n5)c(OC5CCC5)cc4n3)(CO1)C2 (centres unmarked) [Example 532, N-(1-(cyanomethyl)-1H-pyrazol-3-yl)-7-cyclobutoxy-2-(1-methyl-2-oxabicyclo[2.2.1]heptan-4-yl)imidazo[1,2-a]pyridine-6-carboxamide] | 0.0029 | 
CC12CCC(c3cn4cc(C(=O)Nc5cccn6cnnc56)c(OC5CCC5)cc4n3)(CO1)C2 (centres unmarked) [Example 540, N-([1,2,4]triazolo[4,3-a]pyridin-8-yl)-7-cyclobutoxy-2-(1-methyl-2-oxabicyclo[2.2.1]heptan-4-yl)imidazo[1,2-a]pyridine-6-carboxamide] | 0.0008 | 
CC12CC(c3cn4cc(C(=O)Nc5cccn(C(F)F)c5=O)c(OC5CC(C(F)F)C5)cc4n3)(CO1)C2 (centres unmarked) [Example 450, N-(1-(difluoromethyl)-2-oxo-1,2-dihydropyridin-3-yl)-7-(3-(difluoromethyl)cyclobutoxy)-2-(1-methyl-2-oxabicyclo[2.1.1]hexan-4-yl)imidazo[1,2-a]pyridine-6-carboxamide] |  | 0.0003
CC(C)Oc1nc2nc(C34COC(C)(C3)C4)cn2cc1C(=O)Nc1cccc(C#N)c1F [Example 353, N-(3-cyano-2-fluorophenyl)-7-isopropoxy-2-(1-methyl-2-oxabicyclo[2.1.1]hexan-4-yl)imidazo[1,2-a]pyrimidine-6-carboxamide trifluoroacetate] |  | 0.0025
CC12CCC(c3cn4cc(C(=O)Nc5ccn(CC(F)F)n5)c(OC5CCC5)cc4n3)(CO1)C2 (centres unmarked) [Example 543, 7-Cyclobutoxy-N-(1-(2,2-difluoroethyl)-1H-pyrazol-3-yl)-2-(1-methyl-2-oxabicyclo[2.2.1]heptan-4-yl)imidazo[1,2-a]pyridine-6-carboxamide] | 0.0044 | 
COc1cccc(NC(=O)c2cn3cc(C45CC(C)(CO4)C5)nc3cc2OC)n1 [Example 26] |  | 0.124

The next lines start with the values.

IC50 [µM] | IC50 [1] [µM] | SMILES
0.0015 |  | CC(C)Oc1cc2nc(C34CCC(C)(C3)OC4)cn2cc1C(=O)Nc1nc(C(F)F)cs1 (centres unmarked) [Example 516, N-(4-(difluoromethyl)thiazol-2-yl)-7-isopropoxy-2-(1-methyl-2-oxabicyclo[2.2.1]heptan-4-yl)imidazo[1,2-a]pyridine-6-carboxamide]
0.0008 |  | COc1ncccc1NC(=O)c1cn2cc(C34CCC(C)(C3)OC4)nc2c(OC(C)C)n1 (centres unmarked) [Example 239]
0.0016 |  | Cc1cnc2c(NC(=O)c3cn4cc(C56CCC(C)(C5)OC6)nc4cc3OC3CC3)cnn2c1 (centres unmarked) [Example 555]
0.0015 |  | Cn1ccc(NC(=O)c2cn3cc(C45COC(C)(C4)C5)nc3cc2OC2CCCC2)n1 [Example 449, 7-(Cyclopentyloxy)-N-(1-methyl-1H-pyrazol-3-yl)-2-(1-methyl-2-oxabicyclo[2.1.1]hexan-4-yl)imidazo[1,2-a]pyridine-6-carboxamide]
0.0059 |  | CC(C)Oc1cc2nc(C34COC(C)(C3)C4)cn2cc1C(=O)Nc1ccc(F)cn1 [Example 244]
0.378 |  | COc1cc2nc(C3CCOCC3)cn2cc1C(=O)Nc1ccnc(C)c1OC [Example 201]
0.0077 |  | CC(C)Oc1c(C(=O)Nc2cnn3cccnc23)cn2cc(C34COC(C)(C3)C4)nc2c1F [Example 302, 8-Fluoro-7-isopropoxy-2-(1-methyl-2-oxabicyclo[2.1.1]hexan-4-yl)-N-(pyrazolo[1,5-a]pyrimidin-3-yl)imidazo[1,2-a]pyridine-6-carboxamide]
 | 0.0031 | COc1ncc(F)cc1NC(=O)c1cn2cc(C34COC(C)(C3)C4)nc2nc1OC(C)C [Example 306, N-(5-fluoro-2-methoxypyridin-3-yl)-7-isopropoxy-2-(1-methyl-2-oxabicyclo[2.1.1]hexan-4-yl)imidazo[1,2-a]pyrimidine-6-carboxamide trifluoroacetate]
0.0032 |  | COCCCc1cn2cc(C(=O)Nc3cccc(OC)n3)c(OC(C)C)cc2n1 [Example 103, 7-Isopropoxy-2-(3-methoxypropyl)-N-(6-methoxypyridin-2-yl)imidazo[1,2-a]pyridine-6-carboxamide]
0.0002 |  | CC(C)Oc1nc2nc(C34CCC(C)(C3)OC4)cn2cc1C(=O)Nc1cccc(C(F)F)n1 (centres unmarked) [Example 247]
0.0397 |  | CCOc1cc2nc([C@@H]3C[C@H]3F)cn2cc1C(=O)Nc1cccc(OC)n1 (single isomer, unassigned) [Example 67]
 | 0.0475 | COc1nc(C(=O)Nc2ccccn2)cn2cc(C3CCOCC3)nc12 [Example 78]
0.0018 |  | Cn1ccc(NC(=O)c2cn3cc(C45CCC(C)(C4)OC5)nc3cc2OC2CCCC2)n1 (centres unmarked) [Example 632, 7-(Cyclopentyloxy)-N-(1-methyl-1H-pyrazol-3-yl)-2-(1-methyl-2-oxabicyclo[2.2.1]heptan-4-yl)imidazo[1,2-a]pyridine-6-carboxamide]
 | 0.0065 | CC(C)Oc1nc2nc(C34COC(C)(C3)C4)cn2cc1C(=O)Nc1ccc2c(n1)CCC2 [Example 366, N-(6,7-dihydro-5H-cyclopenta[b]pyridin-2-yl)-7-isopropoxy-2-(1-methyl-2-oxabicyclo[2.1.1]hexan-4-yl)imidazo[1,2-a]pyrimidine-6-carboxamide trifluoroacetate]
0.0115 |  | CC(C)Oc1cc2nccn2cc1C(=O)Nc1cccc(C(F)F)n1 [Example 220]
0.001 |  | O=C(Nc1cccc(C(F)F)n1)c1cn2cc(C3CC3)nc2cc1OC1CCCC1 [Example 467, 7-(Cyclopentyloxy)-2-cyclopropyl-N-(6-(difluoromethyl)pyridin-2-yl)imidazo[1,2-a]pyridine-6-carboxamide]
0.028 |  | CC(C)Oc1cc2nc(C34COC(C)(C3)C4)cn2cc1C(=O)Nc1cc(C#N)cn(C)c1=O [Example 262, N-(5-cyano-1-methyl-2-oxo-1,2-dihydropyridin-3-yl)-7-isopropoxy-2-(1-methyl-2-oxabicyclo[2.1.1]hexan-4-yl)imidazo[1,2-a]pyridine-6-carboxamide]
 | 0.0078 | O=C(Nc1cccc(C(F)F)n1)c1cc(OC(F)F)c2nc(C3CCOCC3)cn2c1 [Example 63, 8-(Difluoromethoxy)-N-(6-(difluoromethyl)pyridin-2-yl)-2-(tetrahydro-2H-pyran-4-yl)imidazo[1,2-a]pyridine-6-carboxamide trifluoroacetate]
